Source: patent EP2886535A1, “Novel veterinary isometamidium compositions and similar substances and uses thereof” (Ceva Sante Animale, priority 2013, dated 2015)
Where two headings read alike, the source gives them in different places.

Key:
[1] = test system: T. b. brucei; assay: In vitro drug sensitivity test on cultured bloodstream forms, 48 h; assay type: cell-based; conditions: for IC50: 48 h exposure, 37 °C
Text: (§1) Les souches T. congolense et T. b. brucei (formes sanguines) ont été cultivées in vitro selon le protocole décrit par Baltz et al. (Embo. J. 1985, 4, 1273-1277) et Coustou et al. (PLOS Negl. Trop. Dis., 2010, 4, 618).
(§2) L'isométamidium a été synthétisé et a été purifié par HPLC (220 nm). L'analyse de sa structure a été confirmée par LC /MS et par RMN 1H et 13C et un degré de pureté de 99,7 % a été obtenu. L'isométamidium pur ainsi que les formulations commerciales Veridium® et Samorin® ont été dissous dans de l'eau distillée (10 mg / ml) et ont été conservés à -20°C avant utilisation.
(§3) Les trypanosomes sont ajoutés dans des plaques de culture cellulaire 96 puits incubées à 34 °C (T. congolense) ou à 37 °C (T. b. brucei) sous atmosphère de CO2 (4 %) pendant 4 heures avant l'ajout des composés qui ont été dilués en série 1/10^eme. 100 µl de chaque dilution ont été ensuite ajoutés à 100 µl de culture dans les puits (2 puits pour chaque dilution de 1 mg/ml jusqu'à 1.10^-19 mg/ml) puis le milieu est incubé à 34 °C (T. congolense) ou à 37 °C (T. b. brucei) sous atmosphère de CO2 (4 %) pendant 48 heures. Les IC50 (Concentration qui réduit de 50% la population parasitaire au bout de 48 heures de culture) ont été calculées en utilisant le logiciel de traitement de données Sigmaplot version 12.
(§4) Les souches T. congolense et T. b. brucei (formes sanguines), les différents composés et leur IC50 ont été, respectivement, cultivées in vitro, préparés et évaluées selon le protocole décrit dans l'exemple 1. Les puretés respectives pour chaque composé obtenu étaient de 97,6 % pour l'isomère bleu, 95,4% pour l'isomère rouge et 97,9 % pour le composé disubstitué.

[2] = test system: T. congolense; assay: as above; assay type: cell-based; conditions: for IC50: 48 h exposure, 34 °C; for activité trypanocide inférieure à celle des formulations commerciales: versus Veridium and Samorin, 48 h, up to about
Text: as §1, §2, §3, §4

[3] = test system: T. congolense; conditions: mice, Brown et al. 1961; purity of compounds unsatisfactory; cited from earlier work
[4] = test system: T. congolense; conditions: cattle, Finelle et al. 1963; cited from earlier work
[5] = test system: T. congolense; assay: In vivo curative and preventive activity in infected and monthly re-infected mice; parameters: species or system souris femelles swiss (CD1); conditions: for Nombre de souris avec une parasitemia positive: n=5; for activité curative et préventive (durée): dose 1 mg/kg
Protocol: La souche T. congolense est cultivée et les différents composés sont préparés selon les protocoles de culture et de préparation décrits pour les tests in vitro (Exemples 1 et 2).
Des parasites de la souche de T. congolense ont été initialement propagés dans des souris femelles swiss (CD1) âgées de 8 semaines (200 mg/kg). Ces souris sont ensuite infectés par voie intrapéritonéale avec 10^5 trypanosomes de souche T. congolense dans un volume final de 200 µl de tampon phosphate glucose (137 mM NaCl, 10 mM phosphate, […], pH 7,4, 1% glucose). Les souris sont alors traitées par les composés à tester 24 heures après l'infection (5 souris traités par composé à tester + un groupe témoin). Chaque composé testé est injecté par voie intrapéritonéale et à des concentrations de 1 et 0,1 mg/kg de poids corporel dans un volume final de 100 µl d'eau stérile. Les souris témoins non traitées reçoivent 100 µl d'eau stérile après infection. La parasitémie a été évaluée 2 fois par semaine au microscope à partir d'échantillons de sang prélevés sur la veine caudale. Afin d'évaluer la persistance des composés, les souris qui étaient parasite-négatives après un mois ont été ré-infectées avec 10^5 trypanosomes. La réinfection a été répétée après le deuxième et troisième mois à partir de l'infection initiale et du traitement si les souris infectées étaient toujours aparasitémiques (sans parasites dans le sang). La réinfection a été réalisée avec des parasites provenant de souris témoins infectées de manière chronique pour éviter une réponse immunitaire immédiate due à la présence d'anticorps homologues anti-VSG. Deux souris non-traitées (Témoin) ont été infectées à chaque infection et réinfection. Le traitement a été considéré inefficace quand plus de 2 souris sur 5 dans un groupe étaient parasite-positives.

[6] = Trypanosoma brucei, read-out: IC50
[7] = Trypanosoma congolense, read-out: IC50

| IC50 [1] | IC50 [2] | IC50 [2, 7] [ng/mL] | Structure (SMILES) | IC50 [1, 6] [µg/mL] | activité trypanocide in-vivo [3] | Nombre de souris avec une parasitemia positive ([5]; dose 0.1 mg/kg i.p., 1 mois) | activité curative et préventive (durée) [5] | Nombre de souris avec une parasitemia positive ([5]; dose 1 mg/kg i.p., 1 mois) | Nombre de souris avec une parasitemia positive ([5]; dose 1 mg/kg i.p., 2 mois) | activité trypanocide inférieure à celle des formulations commerciales [2] [fois] | Nombre de souris avec une parasitemia positive ([5]; dose 0.1 mg/kg i.p., 2 mois) | Nombre de souris avec une parasitemia positive ([5]; dose 1 mg/kg i.p., 3 mois) | further results |
| --- | --- | --- | --- | --- | --- | --- | --- | --- | --- | --- | --- | --- | --- |
| >1 µg/mL | 66,27 ± 14,37 ng/ml | 66.3 | CC[n+]1c(-c2ccccc2)c2cc(N=NNc3cccc(C(=N)N)c3)ccc2c2ccc(N=NNc3cccc(C(=N)N)c3)cc21 [Composé disubstitué pur, 3,8-di-(3-m-amidinophenyltriazeno)-5-éthyl-6-phénylphénanthridium] | > 1 | activité prophylactique et non curative | 5 | pendant au moins trois mois | 0 | 0 | – | – | – | protection / activité curative [4]: permettait de protéger les bovins contre T. congolense, mais était dépourvu de toute activité curative; Nombre de souris avec une parasitemia positive ([5]; dose 1 mg/kg i.p., 3 mois, listed as Composé disubstitué, 1 mg/kg): 1; Nombre de souris avec une parasitemia positive ([5]; dose 1 mg/kg i.p., 3 mois, listed as composé disubstitué, 1 mg/kg): seule une souris est parasite-positive; Nombre de souris avec une parasitemia positive ([5]; dose 1 mg/kg i.p., 4 mois, listed as Composé disubstitué, 1 mg/kg): 4; Nombre de souris avec une parasitemia positive ([5]; dose 1 mg/kg i.p., 4 mois, listed as composé disubstitué, 1 mg/kg): la seule souris parasite-négative |
| 202,15 ± 62,92 ng/ml | 3,63 ± 0,55 ng/ml | 3.63 | CC[n+]1c(-c2ccccc2)c2cc(N)ccc2c2ccc(N=NNc3cccc(C(=N)N)c3)cc21 [Isomère rouge, 3-(3-m-amidinophényl-2-triazeno)-8-amino-5-éthyl-6-phénylphénanthridinium] | 0.202 | – | 0 | – | 0 | 1 | ≤ 10 | 5 | 5 | activité trypanocide inférieure à celles des compositions commerciales ([1]; versus commercial compositions, 48 h): ~20 fois |
| 9,24 ± 2,13 ng/ml | 0,56 ± 0,05 ng/ml | 0.56 | CC[n+]1c(-c2ccccc2)c2cc(N/N=N/c3cccc(C(=N)N)c3)ccc2c2ccc(N)cc21 [Isométamidium pur, 8-(3-m-amidinophényl-2-triazeno)-3-amino-5-éthyl-6-phénylphénanthridinium] | 0.00924 | – | 0 | – | 0 | 0 | – | 0 | 0 | Nombre de souris avec une parasitemia positive ([5]; dose 0.1 mg/kg i.p., 3 mois): 0; Nombre de souris avec une parasitemia positive ([5]; dose 0.1 mg/kg i.p., 4 mois): 5; Nombre de souris avec une parasitemia positive ([5]; dose 1 mg/kg i.p., 4 mois): 5 |

| Structure (SMILES) | IC50 [1] | IC50 [2] | IC50 [2, 7] [ng/mL] | IC50 [1, 6] [µg/mL] | activité trypanocide in-vivo [3] | Nombre de souris avec une parasitemia positive ([5]; dose 0.1 mg/kg i.p., 1 mois) | activité curative et préventive (durée) [5] | Nombre de souris avec une parasitemia positive ([5]; dose 1 mg/kg i.p., 1 mois) | Nombre de souris avec une parasitemia positive ([5]; dose 1 mg/kg i.p., 2 mois) | activité trypanocide inférieure à celle des formulations commerciales [2] [fois] | Nombre de souris avec une parasitemia positive ([5]; dose 0.1 mg/kg i.p., 2 mois) | Nombre de souris avec une parasitemia positive ([5]; dose 1 mg/kg i.p., 3 mois) | further results |
| --- | --- | --- | --- | --- | --- | --- | --- | --- | --- | --- | --- | --- | --- |
| CC[n+]1c(-c2ccccc2)c2c(N=Nc3cccc(C(=N)N)c3)c(N)ccc2c2ccc(N)cc21 [Isomère bleu, 7-(m-amidinophényldiazo)-3,8-diamino-5-éthyl-6-phényl phénanthridinium, reference compound] | 12,01 ± 2,22 ng/ml | 7,11 ± 0,76 ng/ml | 7.11 | 0.012 | activité trypanocide curative | 0 | n'est plus significative au bout de deux mois | 0 | 4 | ≤ 10 | 5 | – | protection des souris d'une infection (durée) ([5]; dose 0,1 mg/kg): ne sont actifs que pendant un mois |
